Assay results reported in publication PMC10886162, “Synthesis of Novel Artemisinin, Ciprofloxacin, and Norfloxacin Hybrids with Potent Antiplasmodial Activity” (Antibiotics, 2024).
Values joined by “and” are separate entries in the source; they are usually repeats but may differ in a detail not shown here. Identical values can stand only once.

Experiments:
[1] = tested on: CQ-resistant Dd2 strain of P. falciparum; assay: In vitro growth inhibition of P. falciparum Dd2 ([3H]-hypoxanthine incorporation); format: cell-based, Plasmodium falciparum; details: for IC50: Plasmodium falciparum, CQ-resistant Dd2, mean +/− SD of at least three independent experiments; for Selectivity Index (IC50 AB943/IC50 Dd2): ratio of cytotoxicity IC50 to antiplasmodial IC50 (Dd2)
Protocol: (§1) The chloroquine-resistant FcB1/Colombia and Dd2/Indochina strains of Plasmodium falciparum were obtained from the Protist Collection of the National Museum of Natural History, Paris, France (n° MNHN-CEU-2016-224-PfFCB1 and MNHN-CEU-2016-222-PfDD2). The parasites were maintained in vitro on human erythrocytes in RPMI 1640 medium supplemented by 8% (v/v) heat-inactivated human serum, at 37 °C, under an atmosphere of 5% CO2. The human red blood cells and serum were provided by the Établissement Français du Sang under the C-CPSL-UNT approval no. 13/EFS/126. The in vitro drug susceptibility assays were measured by [^3H]-hypoxanthine incorporation, as previously described. The drug stock solutions were prepared in DMSO. Briefly, the assays were performed in 96-well plates. The compounds were diluted in the culture medium (100 μL per well). The parasite cultures (100 μL, 2% parasitaemia, and 1% final hematocrit) were then added to each well and incubated for 24 h at 37 °C prior to the addition of 0.5 μCi of [^3H]- hypoxanthine (GE Healthcare, Paris, France, 1 to 5 Ci·mmol/mL) per well. After a further incubation of 24 h, the plates were frozen and thawed. The cell lysates were then collected onto fiberglass filters and counted in a liquid scintillation spectrometer. The growth inhibition for each drug concentration was determined through a comparison of the radioactivity incorporated in the treated culture with that in the control culture maintained on the same plate. The drugs were first evaluated for a range of fixed concentrations of 50, 5, 0.5, 0.05, and 0.005 μg/mL. […] The IC50 value was obtained from the drug concentration–response curve, and the results were expressed in μM or nM as the mean values ± standard deviations determined from several independent experiments. Artesunate (46) was used as an antimalarial drug control.

[2] = tested on: human primary fibroblasts AB943; assay: Cytotoxicity upon human primary fibroblasts AB943 (resazurin); format: cell-based; details: Fibroblast, 72 h, mean +/− SD of at least three independent experiments
Protocol: A cellular cytotoxicity evaluation was performed upon human primary fibroblasts AB943, as previously described. The assays were realized in 96-well plates in DMEM + Glutamax without phenol red medium containing 25 mM HEPES, a pH of 7.3, and 10% of fetal calf serum under a 5% CO2 atmosphere, at 37 °C. After trypsin treatment, the AB943 cells were seeded at 2000 cells per well in 100 μL. After 24 h of incubation, drugs diluted in the culture medium were added (100 μL per well). The drug stock solutions were prepared in dimethyl sulfoxide (DMSO). The final DMSO concentration in the cultures remained below 1%. Control cultures were constituted of cultures treated with DMSO instead of the drug. The cytotoxicity assay was based on the conversion of a redo-sensitive dye (resazurin) to a fluorescent product via viable cells. After 72 h of incubation, the resazurin solution was added in each well at a final concentration of 45 μM. The fluorescence was measured at 530 nm excitation and 590 nm emission wavelengths after 4 h of incubation. The percentage of the inhibition of cell growth was calculated by comparing the fluorescence of cells maintained in the presence of the drug to that in the absence of the drug. The concentration causing 50% growth inhibition (IC50) was obtained from the drug concentration–response curve, and the results were expressed as the mean values ± standard deviations determined from several experiments.

[3] = tested on: CQ-resistant P. falciparum FcB1 strain; assay: In vitro growth inhibition of P. falciparum FcB1 ([3H]-hypoxanthine incorporation); format: cell-based, Plasmodium falciparum; details: for IC50: Plasmodium falciparum; for Selectivity Index (IC50 AB943/IC50 FcB1): ratio of cytotoxicity IC50 to antiplasmodial IC50 (FcB1)
Protocol: as §1

[4] = FCB1, CQ-resistant FcB1, mean +/− standard deviation of independent experiments (at least four in Tables 1-2, at least three in Tables 3-4)
[5] = FCB1, Table 5, single compound (hybrid or AS alone)

Row | melting point [°C] | Compound | IC50 [1] [nM] | Selectivity Index (IC50 AB943/IC50 Dd2) [1] | IC50 [2] [nM] | IC50 [3, 4] [nM] | Selectivity Index (IC50 AB943/IC50 FcB1) [3] | IC50 [3, 5] [nM]
1 | 151 to 152 | CCCCOC(=O)c1cn(CC)c2cc(N3CCN(C(=O)C[C@H]4O[C@@H]5O[C@@]6(C)CCC7[C@H](C)CCC([C@H]4C)[C@]75OO6)CC3)c(F)cc2c1=O (stereo partly drawn) [Compound 19, Butyl 1-ethyl-6-fluoro-4-oxo-7-(4-(2-((3R,6R,9R,10R,12R,12aR)-3,6,9-trimethyldecahydro-12H-3,12-epoxy[1,2]dioxepino[4,3-i]isochromen-10-yl)acetyl)piperazin-1-yl)-1,4-dihydroquinoline-3-carboxylate] | 38.4 | 469 | 18000 | 13.9 | 1294 | 
2 | 140 to 141.1 | CCOC(=O)c1cn(CC)c2cc(N3CCN(C(=O)CCC(=O)O[C@@H]4O[C@@H]5O[C@@]6(C)CCC7[C@H](C)CCC([C@H]4C)[C@]75OO6)CC3)c(F)cc2c1=O (stereo partly drawn) [Compound 23, Ethyl 1-ethyl-6-fluoro-4-oxo-7-(4-(4-oxo-4-(((3R,6R,9R,10S,12R,12aR)-3,6,9-trimethyldecahydro-12H-3,12-epoxy[1,2]dioxepino[4,3-i]isochromen-10-yl)oxy)butanoyl)piperazin-1-yl)-1,4-dihydroquinoline-3-carboxylate] | 3.5 | 12,488 | 43700 | 1.5 | 28,000 and 28,382 | 1.5
3 | 123 to 124 | C[C@@H]1CCC2[C@@H](C)[C@@H](CC(=O)N3CCN(c4cc5c(cc4F)c(=O)c(C(=O)O)cn5C4CC4)CC3)O[C@@H]3O[C@@]4(C)CCC1[C@@]23OO4 (stereo partly drawn) [Compound 12, 1-cyclopropyl-6-fluoro-4-oxo-7-(4-(2-((3R,6R,9R,10R,12R,12aR)-3,6,9-trimethyldecahydro-12H-3,12-epoxy[1,2]dioxepino[4,3-i]isochromen-10-yl)acetyl)piperazin-1-yl)-1,4-dihydroquinoline-3-carboxylic acid] | 32.5 | 2034 | 66100 | 14.8 | 4453 | 
4 |  | CCn1cc(C(=O)N2CCN(c3ccnc4cc(Cl)ccc34)CC2)c(=O)c2cc(F)c(N3CCNCC3)cc21 [Compound 43] | 483 | 26 | 12700 | 476 | 27 | 
5 | 155 to 156 | CCCCOC(=O)c1cn(CC)c2cc(N3CCN(C(=O)CCC(=O)O[C@@H]4O[C@@H]5O[C@@]6(C)CCC7[C@H](C)CCC([C@H]4C)[C@]75OO6)CC3)c(F)cc2c1=O (stereo partly drawn) [Compound 24, Butyl 1-ethyl-6-fluoro-4-oxo-7-(4-(4-oxo-4-(((3R,6R,9R,10S,12R,12aR)-3,6,9-trimethyldecahydro-12H-3,12-epoxy[1,2]dioxepino[4,3-i]isochromen-10-yl)oxy)butanoyl)piperazin-1-yl)-1,4-dihydroquinoline-3-carboxylate] | 9.2 | 3311 | 30300 | 1.9 | 16,000 and 16,047 | 1.9
6 | 128.6 to 129.7 | CCCCOC(=O)c1cn(C2CC2)c2cc(N3CCN(C(=O)CCC(=O)O[C@@H]4O[C@@H]5O[C@@]6(C)CCC7[C@H](C)CCC([C@H]4C)[C@]75OO6)CC3)c(F)cc2c1=O (stereo partly drawn) [Compound 22, Butyl 1-cyclopropyl-6-fluoro-4-oxo-7-(4-(4-oxo-4-(((3R,6R,9R,10S,12R,12aR)-3,6,9-trimethyldecahydro-12H-3,12-epoxy[1,2]dioxepino[4,3-i]isochromen-10-yl)oxy)butanoyl)piperazin-1-yl)-1,4-dihydroquinoline-3-carboxylate] | 13 | 3002 | 38900 | 3.5 | 11,303 | 3.5
7 | 105 to 106 | CCCCOC(=O)c1cn(C2CC2)c2cc(N3CCN(C(=O)C[C@H]4O[C@@H]5O[C@@]6(C)CCC7[C@H](C)CCC([C@H]4C)[C@]75OO6)CC3)c(F)cc2c1=O (stereo partly drawn) [Compound 16, Butyl 1-cyclopropyl-6-fluoro-4-oxo-7-(4-(2-((3R,6R,9R,10R,12R,12aR)-3,6,9-trimethyldecahydro-12H-3,12-epoxy[1,2]dioxepino[4,3-i]isochromen-10-yl)acetyl)piperazin-1-yl)-1,4-dihydroquinoline-3-carboxylate] | 24 | 622 | 14900 | 7.5 | 2000 | 
8 | 103.4 to 104.5 | C[C@@H]1CCC2[C@@H](C)[C@H](OC(=O)CCC(=O)N3CCN(c4cc5c(cc4F)c(=O)c(C(=O)O)cn5C4CC4)CC3)O[C@@H]3O[C@@]4(C)CCC1[C@@]23OO4 (stereo partly drawn) [Compound 20, 1-cyclopropyl-6-fluoro-4-oxo-7-(4-(4-oxo-4-(((3R,6R,9R,10S,12R,12aR)-3,6,9-trimethyldecahydro-12H-3,12-epoxy[1,2]dioxepino[4,3-i]isochromen-10-yl)oxy)butanoyl)piperazin-1-yl)-1,4-dihydroquinoline-3-carboxylic acid] | 8 | 5146 | 41300 | 4 | 10,318 | 
9 | 157 to 158.2 | C[C@@H]1CCC2[C@@H](C)[C@H](OC(=O)CCC(=O)N3CCN(c4cc5c(cc4F)c(=O)c(C(=O)N4CCN(c6ccnc7cc(Cl)ccc67)CC4)cn5C4CC4)CC3)O[C@@H]3O[C@@]4(C)CCC1[C@@]23OO4 (stereo partly drawn) [Compound 28, (3R,6R,9R,10S,12R,12aR)-3,6,9-trimethyldecahydro-12H-3,12-epoxy[1,2]dioxepino[4,3-i]isochromen-10-yl 4-(4-(3-(4-(7-chloroquinolin-4-yl)piperazine-1-carbonyl)-1-cyclopropyl-6-fluoro-4-oxo-1,4-dihydroquinolin-7-yl)piperazin-1-yl)-4-oxobutanoate] | 12.4 | 1582 | 19600 | 4.9 | 4046 | 
10 | 115 to 116 | C[C@@H]1CCC2[C@@H](C)[C@@H](CCC(=O)N3CCN(c4cc5c(cc4F)c(=O)c(C(=O)N4CCN(c6ccnc7cc(Cl)ccc67)CC4)cn5C4CC4)CC3)O[C@@H]3O[C@@]4(C)CCC1[C@@]23OO4 (stereo partly drawn) [Compound 26, 3-(4-(7-chloroquinolin-4-yl)piperazine-1-carbonyl)-1-cyclopropyl-6-fluoro-7-(4-(3-((3R,6R,9R,10R,12R,12aR)-3,6,9-trimethyldecahydro-12H-3,12-epoxy[1,2]dioxepino[4,3-i]isochromen-10-yl)propanoyl)piperazin-1-yl)quinolin-4(1H)-one] | 41.5 | 880 | 36500 | 13.7 | 2668 | 
11 | 135.1 to 136 | CCOC(=O)c1cn(CC)c2cc(N3CCN(C(=O)C[C@H]4O[C@@H]5O[C@@]6(C)CCC7[C@H](C)CCC([C@H]4C)[C@]75OO6)CC3)c(F)cc2c1=O (stereo partly drawn) [Compound 18, Ethyl 1-ethyl-6-fluoro-4-oxo-7-(4-(2-((3R,6R,9R,10R,12R,12aR)-3,6,9-trimethyldecahydro-12H-3,12-epoxy[1,2]dioxepino[4,3-i]isochromen-10-yl)acetyl)piperazin-1-yl)-1,4-dihydroquinoline-3-carboxylate] | 58.7 | 925 | 54300 | 25.5 | 2129 | 
